Where “and” joins values, the source holds several entries; their conditions need not be identical. Identical values can stand only once.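 The compound was tested at five concentrations on cells cultured in 96-well plates, with a 48-hour exposure period. The concentration for 50% growth inhibition is given as GI50. The concentration for full growth arrest is given as TGI.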
Tests used:
Assay in all cases: NCI anticancer screen, dose series, 48 h
[1] = system: HS 578T breast
[2] = system: CCRF-CEM leukemia
[3] = system: NCI-H522 lung
[4] = system: NCI-H226 lung
[5] = system: OVCAR-8 ovarian
[6] = system: MALME-3M melanoma
[7] = system: HCT-15 colon
[8] = system: NCI-H23 lung

Row | SMILES | GI50 [1] | TGI [1] | GI50 [2] | TGI [2] | GI50 [3] | TGI [3] | GI50 [4] | TGI [4] | GI50 [5] | TGI [5] | GI50 [6] | TGI [6] | GI50 [7] | TGI [7] | GI50 [8] | TGI [8]
1 | N#Cc1cccc(C2C3=C(COC3=O)N(CCO)c3cc4c(cc32)CCC4)c1 (centres undefined) | 141 nM | > 13.5 µM | 187 nM | > 50 µM | 25 nM | 1.67 µM | 1670 nM | > 50 µM | 0.237 µM | > 50 µM | 0.173 µM | > 50 µM | 127 nM | > 50 µM | 302 nM | > 50 µM
2 | Oc1c(I)cc(Cl)c2cccnc12 | 7780 nM and 8120 nM | > 100 µM and 57.7 µM | 2810 nM and 1890 nM | 9.89 µM and 4.71 µM | 3930 nM and 14500 nM | 30.2 µM and 36.4 µM | 3020 nM and 2660 nM | 20 µM and 8.8 µM | 3.96 µM and 27.2 µM | > 100 µM and 99.3 µM | 3.97 µM and 16.5 µM | 21.6 µM and 46.5 µM | 5480 nM and 3820 nM | > 100 µM and 38.5 µM | 3740 nM and 8040 nM | 31.4 µM and > 100 µM
3 | CC(=O)OC1COC(Oc2c(C)c3c4c(c2O)[C@@H](C)CC[C@@H]4[C@@H](C)C[C@H]3C=C(C)C)C(O)C1O (some centres undefined) | > 100000 nM | > 100 µM | 11100 nM | 35.6 µM | 30500 nM | > 100 µM | 21800 nM | 52.3 µM | 20.6 µM | 50.3 µM | 13.2 µM | 27.3 µM | 17900 nM | 37.9 µM | 16600 nM | 33.2 µM
4 | Cc1ccc(NC2=CC(=O)C(=O)c3ccccc32)c(C)c1 | 2350 nM | 7.99 µM | 6230 nM | > 100 µM | 1520 nM | 5.87 µM | 2850 nM | 12.2 µM | 3.32 µM | 17 µM | 1.76 µM | 3.78 µM | 2740 nM | 17.1 µM | 1780 nM | 4.51 µM
5 | CN(C)c1ccc2c(c1)OC(N)=C(C#N)C2c1ccc2c(c1)CCCN2C (centres undefined) | 2130 nM | > 100 µM | 3010 nM | 49.2 µM | 274 nM | 1.47 µM | 5440 nM | 71 µM | 3.2 µM | 27.5 µM | 16.3 µM | 58.9 µM | 789 nM | > 100 µM | 2830 nM | 92.1 µM
6 | CCN(CC)Cc1cc(Nc2cc(C(F)(F)F)c(C#N)c3nc4ccccc4n23)ccc1O | 2390 nM | 12.1 µM | 2790 nM | > 100 µM | 1050 nM | 2.74 µM | 1340 nM | 10.4 µM | 2.68 µM | 12.6 µM | 1.19 µM | 5.82 µM | 780 nM | 2.76 µM | 1210 nM | 8.29 µM
7 | C=CC(C)(O)CCC1C(=C)C(O)CC2C(C)(C)CCCC12C (centres undefined) | – | 50.3 µM | – | 45.4 µM | – | 34.1 µM | – | 29.2 µM | – | 71.4 µM | – | 34.8 µM | – | 33.3 µM | – | 38.3 µM

From PubChem BioAssay (NCI)
